What was measured:
[1] = Blood plasma level after oral administration, male C57/BL6 mice; type: in vivo; details: about 25 mg/kg orally as suspension in 0.5% HEC, sampling 0.25-8 hours
Method: Blood plasma level of N-[(S)-2-diphenylamino-1-(5-oxo-4,5-dihydro[1,3,4]-oxadiazol-2-yl)ethyl]-2-(2-methylaminopyrimidin-4-yl)-1H-indol-5-carboxamide.
Blood samples were taken after 0.25; 0.5; 1; 2; 4; 6 and 8 hours (sacrificial blood was withdrawn from in each case 2 animals at each of the time points mentioned). The blood samples were converted into heparin plasma. The plasma samples were stored at −20° C. until analyzed.
The plasma samples were thawed. The plasma proteins which interfered with the analysis were then precipitated with acetonitrile.
(§1) Processing: 50 μl of plasma+20 μl of internal standard (5 μg/ml)+50 μl of buffer (2 mMol ammonium formate solution, pH 2.6/acetonitrile, 40:60, v/v) were mixed for about 10 sec on a Whirlmixer. 150 μl of acetonitrile were then added and the whole was mixed once again for about 10 sec. The samples were then centrifuged (Hettich, EBA 12, about 12 000 revolutions per minute). The supernatants (in each case about 200 μl) were transferred to glass tubes. 70 μl of the supernatant were injected.
The lower detection limit of the method is 0.01 μg/mL.

[2] = target: protein tyrosine kinase; test: Protein tyrosine kinase assay (Upstate test kit); type: biochemical; details: for IC50: ATP concentration of 50 μM, substrate Poly (Glu, Tyr 4:1) 1 mg/ml; for Specificity ratio: IC50 protein tyrosine kinase relative to IκB kinase, > denotes better than
Method: As examples of the specificities of the IκB kinase inhibitors which had been discovered, their IC50 values were determined in the case of the kinase enzyme protein tyrosine kinase.
Protein tyrosine kinase activity was determined using the appropriate test kit from Upstate Biotechnologie in accordance with the manufacturer's instructions and at an ATP concentration of 50 μM. As a difference from the manufacturer's method, Multi-Screen plates (Millipore; phosphocellulose MS-PH, cat. MAPHNOB10, or Durapore PVDF, cat. MADVNOB 50), were used, together with the appropriate exhaust system, instead of phospho-cellulose filters. Poly (Glu, Tyr 4:1) (Sigma cat. P0275) was used as the test kit substrate at a test concentration of 1 mg/ml. The plates were then measured in a Wallac MicroBeta scintillation counter. 100 μM of the test substance were used in each case.
The test substance was tested in a duplicate determination. The IC50 calculations were performed using the GraFit 3.0 software package.

[3] = target: T1, IκB kinase (Homo sapiens, UniProt O14920+O15111); test: IκB kinase ELISA; type: biochemical
T1 construct: endogenous in cells; host or cells: HeLa S3 (S100 extract; ammonium sulfate cut, Superose-6 fractions at 670 kDa)

[4] = Comparison experiment: blood plasma level after oral administration, male NMRI mice; type: in vivo
Method: [drawing 27] was prepared as described in WO 01/30774 and is termed the comparison compound below. The comparison compound was administered to male NMRI mice. For this, in each case about 50 mg of the comparison compound per kg of body weight of the mice were administered orally as a suspension in 0.5% HEC (by way of a probang). Blood samples were taken after 0.25; 0.5; 1; 2; 4; 6 and 8 hours (sacrificial blood was withdrawn from in each case 2 animals at each of the time points mentioned). The blood samples were converted into heparin plasma. The plasma samples were stored at −20° C. until analyzed.
Analysis: The analysis was carried out using HPLC/UV.
as §1, with “(1% formic acid/acetonitrile,” for “(2 mMol ammonium formate solution, pH 2.6/acetonitrile,”, “min).” for “minute).”, “100” for “70”

T1 sequence (O14920 whole entry): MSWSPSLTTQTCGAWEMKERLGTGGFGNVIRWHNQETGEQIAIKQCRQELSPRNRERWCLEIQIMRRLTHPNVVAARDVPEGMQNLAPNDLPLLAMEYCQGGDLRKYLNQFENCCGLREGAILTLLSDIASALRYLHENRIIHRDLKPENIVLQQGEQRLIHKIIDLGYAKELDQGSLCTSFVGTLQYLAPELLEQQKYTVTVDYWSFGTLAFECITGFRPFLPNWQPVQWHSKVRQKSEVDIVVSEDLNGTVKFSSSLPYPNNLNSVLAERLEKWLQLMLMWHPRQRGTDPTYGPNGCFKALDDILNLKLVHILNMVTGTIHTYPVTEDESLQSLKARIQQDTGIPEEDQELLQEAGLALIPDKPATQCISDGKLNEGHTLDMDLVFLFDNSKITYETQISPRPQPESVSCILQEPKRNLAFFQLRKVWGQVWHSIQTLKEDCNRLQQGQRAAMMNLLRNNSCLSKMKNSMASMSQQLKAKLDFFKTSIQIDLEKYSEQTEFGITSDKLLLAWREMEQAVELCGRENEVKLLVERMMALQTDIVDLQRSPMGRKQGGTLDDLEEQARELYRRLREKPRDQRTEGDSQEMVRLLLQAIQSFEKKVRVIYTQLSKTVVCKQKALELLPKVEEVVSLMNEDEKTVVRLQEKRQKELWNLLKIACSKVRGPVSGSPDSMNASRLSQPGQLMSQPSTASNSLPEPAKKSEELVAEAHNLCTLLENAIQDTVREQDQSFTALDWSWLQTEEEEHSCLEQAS
T1 sequence (O15111 whole entry): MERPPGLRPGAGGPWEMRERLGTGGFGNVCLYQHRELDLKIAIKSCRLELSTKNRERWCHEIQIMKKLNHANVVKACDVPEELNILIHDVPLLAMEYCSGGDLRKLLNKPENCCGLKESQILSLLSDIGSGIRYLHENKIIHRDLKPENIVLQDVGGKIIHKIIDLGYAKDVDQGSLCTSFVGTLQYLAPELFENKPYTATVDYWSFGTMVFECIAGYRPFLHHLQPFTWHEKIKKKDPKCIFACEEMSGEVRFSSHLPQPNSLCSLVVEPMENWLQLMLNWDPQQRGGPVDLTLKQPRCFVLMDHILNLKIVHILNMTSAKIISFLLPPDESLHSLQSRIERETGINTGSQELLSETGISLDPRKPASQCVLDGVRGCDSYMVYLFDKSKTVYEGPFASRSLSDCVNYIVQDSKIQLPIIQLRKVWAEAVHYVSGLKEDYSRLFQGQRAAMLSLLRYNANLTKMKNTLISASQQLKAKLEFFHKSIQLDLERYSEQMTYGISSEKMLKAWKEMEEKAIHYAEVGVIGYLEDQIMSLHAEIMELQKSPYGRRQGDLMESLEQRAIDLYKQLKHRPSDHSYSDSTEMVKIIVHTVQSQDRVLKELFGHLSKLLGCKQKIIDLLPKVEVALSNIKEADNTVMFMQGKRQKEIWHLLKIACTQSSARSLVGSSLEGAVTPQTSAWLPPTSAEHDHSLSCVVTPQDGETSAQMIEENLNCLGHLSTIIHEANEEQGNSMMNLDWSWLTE
T1 sequence (Q9Y6K9 whole entry partner): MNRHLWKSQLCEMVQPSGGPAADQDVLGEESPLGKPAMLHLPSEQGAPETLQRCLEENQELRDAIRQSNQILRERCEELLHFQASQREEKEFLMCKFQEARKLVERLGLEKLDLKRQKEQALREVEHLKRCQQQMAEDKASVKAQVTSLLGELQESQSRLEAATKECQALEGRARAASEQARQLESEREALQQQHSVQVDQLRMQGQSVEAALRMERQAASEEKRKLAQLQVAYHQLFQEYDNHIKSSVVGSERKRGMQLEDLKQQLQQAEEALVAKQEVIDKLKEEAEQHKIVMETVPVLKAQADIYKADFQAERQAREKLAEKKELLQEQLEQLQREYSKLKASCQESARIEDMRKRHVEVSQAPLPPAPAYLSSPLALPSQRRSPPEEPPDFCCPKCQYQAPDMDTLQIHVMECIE

| IC50 [3] [nM] | Specificity ratio [2] | SMILES | also measured |
| --- | --- | --- | --- |
| 12 | >833 | CNc1nccc(-c2cc3cc(C(=O)N[C@@H](CN(c4ccccc4)c4ccccn4)c4n[nH]c(=O)o4)ccc3[nH]2)n1 [Example 33, N-[(S)-1-(5-Oxo-4,5-dihydro-1,3,4-oxadiazol-2-yl)-2-(phenylpyridin-2-ylamino)ethyl]-2-(2-methylaminopyrimidin-4-yl)-1H-indole-5-carboxamide] | – |
| 50 | >200 | CNc1nccc(-c2cc3cc(C(=O)NC(CN(c4ccc(F)cc4)c4ccccn4)C(N)=O)ccc3[nH]2)n1 (stereo not drawn) [Example 30, N-{1–Carbamoyl-2-[(4-fluorophenyl)pyridin-2-ylamino]ethyl}-2-(2-methylaminopyrimidin-4-yl)-1H-indole-5-carboxaminde] | – |
| 0.8 | >12500 | CNc1nccc(-c2cc3cc(C(=O)N[C@@H](CN(c4ccccc4)c4ccccn4)C(=O)NOC)ccc3[nH]2)n1 [Example 43, N-[1-Methoxycarbamoyl-2-(phenylpyridin-2-ylamino)ethyl]-S-2-(2-methylaminopyrimidin-4-yl)-1H-indole-5-carboxamide] | – |
| 10 | >1000 | NC(=O)C(CN(c1ccc(F)cc1)c1ccccn1)NC(=O)c1ccc2[nH]c(-c3ccnc(N)n3)cc2c1 (stereo not drawn) [Example 35, N-{1–Carbamoyl-2-[(4-fluorophenyl)pyridin-2-ylamino]ethyl}-2-(2-aminopyrimidin-4-yl)-1H-indole-5-carboxamide] | – |

Further lines, the compound ahead of its results:

| SMILES | IC50 [3] [nM] | Specificity ratio [2] | also measured |
| --- | --- | --- | --- |
| CNc1nccc(-c2cc3cc(C(=O)N[C@@H](CN(c4ccccc4)c4ccccc4)c4n[nH]c(=O)o4)ccc3[nH]2)n1 [Example 28, N-[(S)-2-Diphenylamino-1-(5-oxo-4,5-dihydro[1,3,4]oxadiazol-2-yl)ethyl]-2-(2-methylaminopyrimidin-4-yl)-1H-indole-5-carboxamide] | – | – | plasma level, at most (maximum blood plasma level) [1]: 4300 ng/mL; AUC ([1]; mouse, plasma, po, read-out: exposure, measured as AUC=area under the curve): 5400 ng·h/mL; IC50 [2]: 82500 nM |
| CNc1nccc(-c2cc3cc(C(=O)NC(CN(c4ccc(F)cc4)c4ccccn4)c4nnc[nH]4)ccc3[nH]2)n1 (stereo not drawn) [Example 36, N-[2-[(4-Fluorophenyl)pyridin-2-ylamino]-1-(4H-[1,2,4]triazol-3-yl)ethyl]-2-(2-methylaminopyrimidin-4-yl)-1H-indole-5-carboxamide] | 5 | >2000 | – |
| CNc1nccc(-c2cc3cc(C(=O)N[C@@H](CN(c4ccccc4)c4nccs4)C(N)=O)ccc3[nH]2)n1 [Example 42, N-[1–Carbamoyl-2-(phenylthiazol-2-ylamino)ethyl]-S-2-(2-methylaminopyrimidin-4-yl)-1H-indole-5-carboxamide] | 9 | >1110 | – |
| CNc1nccc(-c2cc3cc(C(=O)NC(CN(c4ccccc4)c4ncccn4)C(=O)NCCO)ccc3[nH]2)n1 (stereo not drawn) [Example 49, N-[1-(2-Hydroxyethylcarbamoyl)-2-(phenylpyrimidin-2-ylamino)ethyl]-2-(2-methylaminopyrimidin-4-yl)-1H-indole-5-carboxamide] | 35 | – | – |
| CCN(C[C@H](NC(=O)c1ccc2[nH]c(-c3ccncc3)cc2c1)C(N)=O)c1ccccc1 [comparison compound] | – | – | maximum blood plasma level lower than with compound 28 ([4]; comparison compound 50 mg/kg vs compound 28 25 mg/kg, oral, mice): about 60%; plasma level, at most (maximum blood plasma level) ([4]; male NMRI mice, about 50 mg/kg orally as suspension in 0.5% HEC, sampling 0.25-8 hours): 1500 ng/mL; AUC ([4]; mouse, plasma, po, male NMRI mice, about 50 mg/kg orally as suspension in 0.5% HEC, sampling 0.25-8 hours, read-out: exposure, measured as the AUC=area under the curve): 1700 ng·h/mL; IC50 [2]: 46400 nM; ratio of the IC50 values for protein tyrosine kinase relative to IκB kinase ([2]; for the comparison compound the IκB kinase IC50 is taken from WO 01/30774): 46.35 |
| CNc1nccc(-c2nc3cc(C(=O)N[C@@H](CN(c4ccccc4)c4ccccc4)C(N)=O)ccc3[nH]2)n1 [Example 63] | 3 | >1000 | – |
| CNc1nccc(-c2cc3cc(C(=O)NC(CN(c4ccc(F)cc4)c4ncc(C)cn4)C(N)=O)ccc3[nH]2)n1 (stereo not drawn) [Example 61, N-{1–Carbamoyl-2-[(4-fluorophenyl)-(5-methylpyrimidin-2-yl)amino]ethyl}-2-(2-methylaminopyrimidin-4-yl)-1H-indole-5-carboxamide] | 6 | >1650 | – |
| CNc1nccc(-c2cc3cc(C(=O)NC(CN(c4ccccc4)c4ncccn4)C(N)=O)ccc3[nH]2)n1 (stereo not drawn) [Example 47, N-{1–Carbamoyl-2[(phenyl)pyrimidin-2-ylamino]ethyl}-2-(2-methylaminopyrimidin-4-yl)-1H-indole-5-carboxamide] | 6 | >1665 | – |
| CNc1nccc(-c2cc3cc(C(=O)N[C@@H](CN(c4ccccc4)c4nccc(C(F)(F)F)n4)C(=O)O)ccc3[nH]2)n1 [Example 54, (S)-2-{[2-(2-Methylaminopyrimidin-4-yl)-1H-indole-5-carbonyl]amino}-3-[phenyl-(4-trifluoromethylpyrimidin-2-yl)amino]propionic Acid] | 3 | >3330 | – |
| CNc1nccc(-c2nc3cc(C(=O)NC(CN(c4ccccc4)c4ncccn4)C(N)=O)ccc3[nH]2)n1 (stereo not drawn) [Example 65, N-{1–Carbamoyl-2-[(phenyl)pyrimidin-2-ylamino]ethyl}2-(2-methylaminopyrimidin-4-yl)-1H-benzimidazole-5-carboxamide] | 4 | >2500 | – |
| CNc1nccc(-c2nc3cc(C(=O)NC(CN(c4ccccc4)c4ccccn4)C(N)=O)ccc3[nH]2)n1 (stereo not drawn) [Example 67, N-{1–Carbamoyl-2-[(phenyl)pyridin-2-ylamino]ethyl}-2-(2-methylaminopyrimidin-4-yl)-1H-benzimidazole-5-carboxamide] | 2 | >5000 | – |
